Laboratory results as given in ChEMBL document CHEMBL1131274, “N6-(5,6-epoxynorbornyl)adenosine analogs as A1 adenosine agonists” (Bioorg Med Chem Lett, 1998).

Experiment: Potency to inhibit A1-adenosine receptor mediated cAMP accumulation in DDT1 MF-2 cells
Type: functional, cell-based
Details: Mesocricetus auratus

Row | Structure (SMILES) | EC50 [nM]
1 | CCNC(=O)[C@H]1OC(n2cnc3c(NCC4CCCCO4)ncnc32)[C@H](O)[C@@H]1O (some centres undefined) | 641
2 | CCNC(=O)[C@H]1OC(n2cnc3c(NCc4ccco4)ncnc32)[C@H](O)[C@@H]1O (some centres undefined) | 262
3 | CCNC(=O)[C@H]1OC(n2cnc3c(NC4CC5CC4C4OC54)[n+]([O-])cnc32)[C@H](O)[C@@H]1O (some centres undefined) | 217
4 | OC[C@H]1OC(n2cnc3c(NCC4CCCCO4)ncnc32)[C@H](O)[C@@H]1O (some centres undefined) | 3090
5 | CCNC(=O)[C@H]1OC(n2cnc3c(NCC4CC5CC4C4OC54)ncnc32)[C@H](O)[C@@H]1O (some centres undefined) | 159
6 | OC[C@H]1OC(n2cnc3c(NCC4CC5C=CC4C5)ncnc32)[C@H](O)[C@@H]1O (some centres undefined) | 188
7 | OC[C@H]1OC(n2cnc3c(NCC4CC5CC4C4OC54)ncnc32)[C@H](O)[C@@H]1O (some centres undefined) | 537

Stronger by EC50, values ahead:

Row | EC50 [nM] | Structure (SMILES)
8 | 37 | OC[C@H]1OC(n2cnc3c(NC4CCC5OC5C4)ncnc32)[C@H](O)[C@@H]1O (some centres undefined)
9 | 35 | CCNC(=O)[C@H]1OC(n2cnc3c(NCC4CC5C=CC4C5)ncnc32)[C@H](O)[C@@H]1O (some centres undefined)
10 | 5.9 | CCNC(=O)[C@H]1OC(n2cnc3c(NC4CCC5OC5C4)ncnc32)[C@H](O)[C@@H]1O (some centres undefined)
11 | 1.1 | CCNC(=O)[C@H]1OC(n2cnc3c(NC4CC=CCC4)ncnc32)[C@H](O)[C@@H]1O (some centres undefined)
12 | 18 | CCNC(=O)[C@H]1OC(n2cnc3c(NCCN4CCOCC4)ncnc32)[C@H](O)[C@@H]1O (some centres undefined)
13 | 7.2 | OC[C@H]1OC(n2cnc3c(NC4CC=CCC4)ncnc32)[C@H](O)[C@@H]1O (some centres undefined)
14 | 2.8 | OC[C@H]1O[C@@H](n2cnc3c(NC4CCCC4)ncnc32)[C@H](O)[C@@H]1O [N6-CYCLOPENTYLADENOSINE]
